Data on 33 molecules can be found in patent US8501770B2 (ArQule, Inc., priority 2009, dated 2013).

pIC50: −log10 of the molar value. Structures can show the parent of a compound that is named as a salt.

Chain of Full-length inactive AKT1 (P31749 whole entry): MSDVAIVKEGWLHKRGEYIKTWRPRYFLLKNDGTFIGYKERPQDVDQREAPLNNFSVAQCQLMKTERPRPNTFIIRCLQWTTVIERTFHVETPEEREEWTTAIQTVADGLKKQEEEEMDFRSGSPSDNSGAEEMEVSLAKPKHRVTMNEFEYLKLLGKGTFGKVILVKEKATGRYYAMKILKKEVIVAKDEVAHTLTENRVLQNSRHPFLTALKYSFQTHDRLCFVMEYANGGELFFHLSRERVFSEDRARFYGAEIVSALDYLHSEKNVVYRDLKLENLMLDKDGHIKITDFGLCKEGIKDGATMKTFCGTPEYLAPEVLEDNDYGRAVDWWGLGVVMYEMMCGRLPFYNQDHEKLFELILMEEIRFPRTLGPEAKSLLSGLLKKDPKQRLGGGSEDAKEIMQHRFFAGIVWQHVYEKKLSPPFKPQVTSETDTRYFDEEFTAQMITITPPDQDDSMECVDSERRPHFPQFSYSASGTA

The first test addresses Full-length inactive AKT1 (Homo sapiens, UniProt P31749). The experiment in a line: Inactive Akt Alpha Screen Assay. In kind it is biochemical. The settings on record: AlphaScreen assay (values not marked with *); read-out: Akt1 IC50, (AlphaScreen) (μM) (or if marked with “*” HTRF assay). The gist of the method:
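AlphaScreen read-out (excitation 640 nm, emission 570 nm) after 90 min incubation at room temperature in the dark. Signal comes from crosstide phosphorylation by AKT1, which was activated by added PDK1, MAPKAPK2, ATP and lipid vesicles, captured via phospho-AKT substrate antibody and streptavidin beads.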
(Bead proximity is the source of the signal in Alpha formats.)
In the case of `CNC(=O)c1cc(-c2ccc3nc(-c4cccnc4N)n(-c4ccc(C5(N)CCC5)cc4)c3n2)ccc1F` [Example 440, 5-{3-[4-(1-aminocyclobutyl)phenyl]-2-(2-aminopyridin-3-yl)-3H-imidazo[4,5-b]pyridin-5-yl}-2-fluoro-N-methylbenzamide], the IC50 (as a rule, the midpoint of a concentration-inhibition curve) is 0.0054 µM.

With `Nc1ncccc1-c1nc2ccc(-c3cccc4[nH]ncc34)nc2n1-c1ccc(C2(N)CCC2)cc1` [Example 442, 3-{3-[4-(1-aminocyclobutyl)phenyl]-5-(1H-indazol-4-yl)-3H-imidazo[4,5-b]pyridin-2-yl}pyridin-2-amine], the IC50 amounted to 0.0049 µM.

The same test, now with this note: values not marked with "*": AlphaScreen assay; read-out: Akt1 IC50, (AlphaScreen).
With `Nc1ncccc1-c1nc2cccnc2n1-c1ccc(CNC(=O)CC(c2ccccc2)c2ccccc2)cc1` [Example 42], the pIC50 (commonly −log10 of the IC50, conventionally taken in molar units) was 5.70.

As for `Cc1ccc2cc(NC(=O)Cc3ccc(-n4c(-c5cccnc5N)nc5cccnc54)cc3)ccc2n1` [Example 123, hydrochloride], the pIC50 is 6.89.

For the molecule `Nc1ncccc1-c1nc2cc(Br)cnc2n1-c1ccc(CNS(=O)(=O)c2ccccc2)cc1` [Example 146, N-{4-[2-(2-aminopyridin-3-yl)-6-bromo-3H-imidazo[4,5-b]pyridin-3-yl]benzyl}benzenesulfonamide], the pIC50 was 6.38.

Regarding `Cn1ccc(S(=O)(=O)NCc2ccc(-n3c(-c4cccnc4N)nc4cccnc43)cc2)n1` [Example 109, hydrochloride], the negative-log IC50 (pIC50) is 6.07.

For `Nc1ncccc1-c1nc2cccnc2n1-c1ccc(CC(=O)N2CCC(n3c(=O)[nH]c4ccccc43)CC2)cc1` [Example 107], the pIC50 was 5.84.

Regarding `CS(=O)(=O)c1ccc(-c2cnc3c(c2)nc(-c2cccnc2N)n3-c2ccc(CNC(=O)c3ccccc3)cc2)cc1` [Example 138, N-(4-{2-(2-aminopyridin-3-yl)-6-[4-(methylsulfonyl)phenyl]-3H-imidazo[4,5-b]pyridin-3-yl}benzyl)benzamide], the negative logarithm of the IC50 (pIC50) was 6.92.

As to `Nc1ncccc1-c1nc2cc(F)cnc2n1-c1ccc(CNC(=O)c2ccccc2)cc1` [Example 133, N-(4-(2-(2-aminopyridin-3-yl)-6-fluoro-3H-imidazo[4,5-b]pyridin-3-yl)benzyl)benzamide], the pIC50 was 6.97.

The same test, now with this note: values not marked with "*"; read-out: Akt1 IC50, (AlphaScreen).
Regarding `Cc1noc(C)c1-c1ccc2nc(-c3cccnc3N)n(-c3ccc(CNC(=O)c4cccc(F)c4)cc3)c2n1` [Example 310, N-(4-(2-(2-aminopyridin-3-yl)-5-(3,5-dimethylisoxazol-4-yl)-3H-imidazo[4,5-b]pyridin-3-yl)benzyl)-3-fluorobenzamide], the pIC50 was 7.10.

On to `CC(=O)Nc1cccc(NC(=O)Cc2ccc(-n3c(-c4cccnc4N)nc4ccc(C)nc43)cc2)c1` [Example 323, N-(3-acetamidophenyl)-2-(4-(2-(2-aminopyridin-3-yl)-5-methyl-3H-imidazo[4,5-b]pyridin-3-yl)phenyl)acetamide], for which the pIC50 is 6.82.

As for `COc1cccc(NC(=O)c2ccc(-n3c(-c4cccnc4N)nc4cccnc43)cc2)c1` [Example 184, 4-[2-(2-aminopyridin-3-yl)-3H-imidazo[4,5-b]pyridin-3-yl]-N-(3-methoxyphenyl)benzamide], the negative logarithm of the IC50 (pIC50) is 5.72.

Regarding `Nc1ncccc1-c1nc2ccc(N3CCCCC3)nc2n1-c1ccc(CNC(=O)c2ccccc2)cc1` [Example 192, N-(4-(2-(2-aminopyridin-3-yl)-5-(piperidin-1-yl)-3H-imidazo[4,5-b]pyridin-3-yl)benzyl)benzamide], the pIC50 was 6.70.

Take `CC(=O)Nc1ccc(-c2ccc3nc(-c4cccnc4N)n(-c4ccc(CNC(=O)c5cccc(F)c5)cc4)c3n2)cc1` [Example 291, N-(4-(5-(4-acetamidophenyl)-2-(2-amino-pyridin-3-yl)-3H-imidazo[4,5-b]pyridin-3-yl)benzyl)-3-fluorobenzamide]: the pIC50 was 7.25.

Take `Nc1ncccc1-c1nc2ccc(-c3ccccc3CO)nc2n1-c1ccc(C2(N)CCC2)cc1` [Example 382, (2-(3-(4-(1-aminocyclobutyl)phenyl)-2-(2-aminopyridin-3-yl)-3H-imidazo[4,5-b]pyridin-5-yl)phenyl)methanol]: the pIC50 was 8.00.

Take `CC(=O)c1cccc(-c2ccc3nc(-c4cccnc4N)n(-c4ccc(C5(N)CCC5)cc4)c3n2)c1` [Example 372, 1-(3-(3-(4-(1-aminocyclobutyl)phenyl)-2-(2-aminopyridin-3-yl)-3H-imidazo[4,5-b]pyridin-5-yl)phenyl)ethanone]: the pIC50 is 8.68.

Turning to `Nc1ncccc1-c1nc2ccc(-c3ccc(F)cc3)nc2n1-c1ccc(CNC(=O)c2cccc(F)c2)cc1` [Example 329, N-(4-(2-(2-aminopyridin-3-yl)-5-(4-fluorophenyl)-3H-imidazo[4,5-b]pyridin-3-yl)benzyl)-3-fluorobenzamide], the negative-log IC50 (pIC50) was 6.44.

As for `CC(=O)Nc1cccc(-c2ccc3nc(-c4cccnc4N)n(-c4ccc(CNS(=O)(=O)c5cn(C)cn5)cc4)c3n2)c1` [Example 325, N-(3-(2-(2-aminopyridin-3-yl)-3-(4-((1-methyl-1H-imidazole-4-sulfonamido)methyl)phenyl)-3H-imidazo[4,5-b]pyridin-5-yl)phenyl)acetamide], the negative-log IC50 (pIC50) was 7.48.

Turning to `Cc1ccc(S(=O)(=O)NCc2ccc(-n3c(-c4cccnc4N)nc4cc(Br)cnc43)cc2)cc1` [Example 162, N-{4-[2-(2-aminopyridin-3-yl)-6-bromo-3H-imidazo[4,5-b]pyridin-3-yl]benzyl}-4-methylbenzenesulfonamide], the negative-log IC50 (pIC50) is 6.35.

As for `Nc1ncccc1-c1nc2ccc(-c3ccsc3)nc2n1-c1ccc(CNC(=O)c2cccc(F)c2)cc1` [Example 317, N-(4-(2-(2-aminopyridin-3-yl)-5-(thiophen-3-yl)-3H-imidazo[4,5-b]pyridin-3-yl)benzyl)-3-fluorobenzamide], the pIC50 was 7.62.

Turning to `Nc1ncccc1-c1nc2cc(Br)cnc2n1-c1ccc(CNS(=O)(=O)c2ccc3c(c2)CCO3)cc1` [Example 161, N-{4-[2-(2-aminopyridin-3-yl)-6-bromo-3H-imidazo[4,5-b]pyridin-3-yl]benzyl}-2,3-dihydro-1-benzofuran-5-sulfonamide], the negative logarithm of the IC50 (pIC50) is 6.54.

In the case of `Nc1ncccc1-c1nc2cc(Br)cnc2n1-c1ccc(CNS(=O)(=O)c2cccc3cccnc23)cc1` [Example 164, N-{4-[2-(2-aminopyridin-3-yl)-6-bromo-3H-imidazo[4,5-b]pyridin-3-yl]benzyl}quinoline-8-sulfonamide], the negative logarithm of the IC50 (pIC50) is 6.21.

Take `N#Cc1ccc(-c2ccc3nc(-c4cccnc4N)n(-c4ccc(CNC(=O)c5cccc(F)c5)cc4)c3n2)cc1` [Example 326, N-(4-(2-(2-aminopyridin-3-yl)-5-(4-cyanophenyl)-3H-imidazo[4,5-b]pyridin-3-yl)benzyl)-3-fluorobenzamide]: the negative-log IC50 (pIC50) is 6.19.

Consider `CC(=O)Nc1cccc(NC(=O)Cc2ccc(-n3c(-c4cccnc4N)nc4ccc(-c5cccnc5)nc43)cc2)c1` [Example 258, N-(3-acetamidophenyl)-2-(4-(2-(2-aminopyridin-3-yl)-5-(pyridin-3-yl)-3H-imidazo[4,5-b]pyridin-3-yl)phenyl)acetamide], for which the pIC50 was 7.77.

Take `COc1ccc(-c2ccc3nc(-c4cccnc4N)n(-c4ccc(C5(N)CCC5)cc4)c3n2)cc1OC` [Example 414, 3-{3-[4-(1-aminocyclobutyl)phenyl]-5-(3,4-dimethoxyphenyl)-3H-imidazo[4,5-b]pyridin-2-yl}pyridin-2-amine]: the negative-log IC50 (pIC50) was 8.31.

Turning to `Cn1cnc(S(=O)(=O)NCc2ccc(-n3c(-c4cccnc4N)nc4cc(Br)cnc43)cc2)c1` [Example 166, N-{4-[2-(2-aminopyridin-3-yl)-6-bromo-3H-imidazo[4,5-b]pyridin-3-yl]benzyl}-1-methyl-1H-imidazole-4-sulfonamide], the pIC50 was 6.36.

Consider `Cc1cnc2c(c1)nc(-c1cccnc1N)n2-c1ccc(CNC(=O)c2ccc(C)s2)cc1` [Example 280, N-(4-(2-(2-aminopyridin-3-yl)-6-methyl-3H-imidazo[4,5-b]pyridin-3-yl)benzyl)-5-methylthiophene-2-carboxamide], for which the pIC50 was 6.96.

Take `Cc1ccc2nc(-c3cccnc3N)n(-c3ccc(CNC(=O)c4cccc(F)c4)cc3)c2n1` [Example 247, N-(4-(2-(2-aminopyridin-3-yl)-5-methyl-3H-imidazo[4,5-b]pyridin-3-yl)benzyl)-3-fluorobenzamide]: the pIC50 is 7.80.

With `Cc1ccc2nc(-c3cccnc3N)n(-c3ccc(CC(=O)Nc4cccc(F)c4)cc3)c2n1` [Example 300, 2-(4-(2-(2-aminopyridin-3-yl)-5-methyl-3H-imidazo[4,5-b]pyridin-3-yl)phenyl)-N-(3-fluorophenyl)acetamide], the pIC50 is 6.77.

As for `Nc1ncc(-c2ccc3nc(-c4cccnc4N)n(-c4ccc(CNC(=O)c5cccc(F)c5)cc4)c3n2)cn1` [Example 306, N-(4-(2-(2-aminopyridin-3-yl)-5-(2-aminopyrimidin-5-yl)-3H-imidazo[4,5-b]pyridin-3-yl)benzyl)-3-fluorobenzamide], the pIC50 was 7.92.

As for `Nc1ncccc1-c1nc2ccc(-c3cccnc3)nc2n1-c1ccc(NC(=O)c2ccccc2)cc1` [Example 255, N-(4-(2-(2-aminopyridin-3-yl)-5-(pyridin-3-yl)-3H-imidazo[4,5-b]pyridin-3-yl)phenyl)benzamide], the pIC50 was 7.92.

Take `CNC(=O)c1cccc(-c2ccc3nc(-c4cccnc4N)n(-c4ccc(CN)cc4)c3n2)c1` [Example 369, 3-(3-(4-(aminomethyl)phenyl)-2-(2-aminopyridin-3-yl)-3H-imidazo[4,5-b]pyridin-5-yl)-N-methylbenzamide]: the negative-log IC50 (pIC50) was 8.27.

Consider `CCOC(=O)Cc1ccc(-n2c(-c3cccnc3N)nc3ccc(-c4cccc(NC(C)=O)c4)nc32)cc1` [Example 243, ethyl 2-(4-(5-(3-acetamidophenyl)-2-(2-aminopyridin-3-yl)-3H-imidazo[4,5-b]pyridin-3-yl)phenyl)acetate], for which the pIC50 was 6.49.
